# What was measured:
# [1] = system: rat aorta; test: Rat Aorta Protocol: relaxation of phenylephrine-contracted rat aorta rings (endothelium removed); format: cell-based
# Method: Such vasorelaxation appears to be related to inhibition of the phosphodiesterase (PDE) isozyme related to the cardiac sarcoplasmic reticulum. Thus, relaxation of rat aorta can be used as a screen to eliminate compounds which are not PDE inhibitors prior to testing for actual inotropic activity.
# Rings of rat aorta (endothelium removed) were prepared for the measurement of isometric force in isolated tissue organ chambers essentially as previously described by T. J. Rimele et al in the Journal of Pharmacol. Exo. Ther. 245:102-111 (1988). The experimental portion of the protocol began with the addition of methylene blue (1×10^-5 M) and propranolol (1×10^-6 M) to each organ chamber to inhibit basal cGMP accumulation due to soluble guanylate cyclase and beta-adrenoceptors.Phenylephrine (1×10^-7 M) was then added and the rings were allowed to obtain a stable contractile response after which time, the test compound was added in a cumulative fashion. The relaxation induced by each concentration of the test compound was expressed as a percentage of the maximal relaxation produced by nitroprusside (1×10^-4 M). The results were graphically represented as a plot of the percentage relaxation vs. the negative log of the molar concentration of the test compound. […]
# [2] = system: barbiturate-anesthetized dogs; test: Anesthetized Dog: beta-blocking effect (inhibition of the dP/dt response to isoproterenol); format: in vivo; settings: Canis lupus familiaris, iv, infusion, isoproterenol 0.1-0.5 μg/kg i.v.
# Method: (§1) Inotropic effects were evaluated in barbiturate-anesthetized dogs by differentiating left intraventricular pressure. This procedure was carried out essentially as described by M. K. Grizzel et al in the FASEB Journal, Vol. 3, page 1039, abstract 4728 (1989). Purpose breed mongrel dogs (14-20 kg) of either sex were anesthetized with a mixture of sodium pentobarbital (15 mg/kg) and sodium barbital (300 mg/kg) i.v., intubated with a cuffed endotracheal tube and ventilated with a respirator (Harvard Apparatus, model 613, South Natick, Mass.) with room air (22 rpm, 10-12 ml/kg/stroke). […] Cardiac output was determined via thermodilution with a Spectramed computer (Starcom., Oxnard, Calif.) and a 5F Swan Ganz catheter which was inserted into the right jugular vein and positioned in the pulmonary artery. […] A lead II electrocardiogram was measured using subcutaneous electrodes. […] Rectal temperature was monitored and maintained at 37°-38° C. with a heating pad (Baxter Health Care model K20, McGaw Park, Ill.). All variables were recorded using a Gould 3800S physiograph.
# (§2) Isoproterenol (0.1-0.5 μg/kg) was injected i.v. into the cephalic vein at 10 min intervals except for when the test drug infusion was begun. […] Inhibition of the isoproterenol responses on contractility (dP/dt), heart rate and diastolic blood pressure were determined at each dose of test compound. […]
# [3] = system: barbiturate-anesthetized dogs; test: Anesthetized Dog: inotropic effect (increase in baseline left ventricular dP/dt); format: in vivo
# Method: as §1, §2
# [4] = system: guinea pig left atria; test: Guinea Pig Left Atria Test: direct effect on force of atrial contraction; format: cell-based; settings: Cavia porcellus, propranolol and phentolamine (1.0 micromolar each) present
# Method: This test is carried out as generally described by T. P. Kenakin et al in Journal of Cardiovascular Pharmacology 101, 658-666 (1987) and in the Journal of Pharmacology and Experimental Therapeutics, Vol. 213, 406-413 (1980).
# Male Hartley guinea-pigs (300-400 grams) were sacrificed by cervical dislocation or carbon dioxide asphyxiation. The hearts were immediately removed and placed in oxygenated Krebs-Henseleit buffer (composition (millimolar): Na^+ 143, K^+ 5.9, Ca^++ 1.25, Mg^++ 1.2, Cl^- 128, HCO3^- 25, SO4^-- 1.2, H2 PO4^- 1.0, and D-glucose 10). Left atria were dissected away from the remainder of the heart and mounted on holders against platinum punctate electrodes. The mounted atria were placed in tissue baths maintained at 31° C. and oxygenated with 95% 02 -5% CO2 under 1.0 gram resting tension. […] Contractions were detected with a force displacement transducer and recorded on a physiograph. […]
# Direct effects of the test compounds on the force of atrial contraction were observed and recorded after addition of the compounds to the tissue bath. […] Responses to the test compounds and forskolin were expressed as a percentage of the maximal response to forskolin. EC50 values for the test compounds were calculated as the concentration of the compound necessary to produce an inotropic response half that of the maximal response produced by the test compound.
# [5] = molecular target: T1, Beta-1 adrenoceptor (Rattus norvegicus, UniProt P18090); test: Beta Adrenoceptor Binding Assays: displacement of [I-125]-Pindolol from rat brain cortical membranes; settings: pH 7.6, 22° C., two hr, read-out: pIC50 (negative log of the IC50) (converted)
# T1 construct: rat brain cortices were used as the source of membrane vesicles; from tissue; host or cells: rat brain cortex membranes
# Method: Because of its receptor density rat brain cortices were used as the source of membrane vesicles to be used in the receptor binding assays. Freshly excised cortexes were homogenized in 20 volumes (w/v) 50 mM TRIS HCl Buffer (pH 7.5), with a glass/Teflon homogenizer following the procedure previously described by T. J. Rimele in J. Pharmacol Exp. Ther. 239: 1-8, 1986. Beta-1 adrenoceptor binding activity was determined following methods described by M. H. Randall, et al, J. Med. Chem. 20: 1090-1094, 1977, and J. Homberger, et al in Mol. Pharmacol. 20: 453-469, 1981. The incubation mixture consisted of; 26 μl of 50 mM TRIS/HCl, 10 mM MgCl2 pH 7.6 buffer, 25 μl of test drug or 10-6 pindolol to define nonspecific binding, 100 μl of [I-125]-Pindolol (2200Ci/mM) at a final concentration of 10-9, and 100 μl of brain cortical membranes. The mixture was incubated at RT (22 ° C.) for two hr in the dark. The reaction was stopped by filtration of the mixture through buffer soaked glass fiber membranes (GF/B) using an cell harvesting device (Skatron Inc.). The radioactivity in each filter containing the trapped membrane particles was counted with a gamma counter. […] All specific binding values obtained in the presence of test compounds were expressed as the percentage of specific binding displaced by the individual agents. […]
# [6] = system: rat aorta; settings: literature, R. F. Kauffman et al., J. Pharmacol. Exp. Ther. 242:864-872 (1987); cited from earlier work
# T1 sequence (P18090 whole entry): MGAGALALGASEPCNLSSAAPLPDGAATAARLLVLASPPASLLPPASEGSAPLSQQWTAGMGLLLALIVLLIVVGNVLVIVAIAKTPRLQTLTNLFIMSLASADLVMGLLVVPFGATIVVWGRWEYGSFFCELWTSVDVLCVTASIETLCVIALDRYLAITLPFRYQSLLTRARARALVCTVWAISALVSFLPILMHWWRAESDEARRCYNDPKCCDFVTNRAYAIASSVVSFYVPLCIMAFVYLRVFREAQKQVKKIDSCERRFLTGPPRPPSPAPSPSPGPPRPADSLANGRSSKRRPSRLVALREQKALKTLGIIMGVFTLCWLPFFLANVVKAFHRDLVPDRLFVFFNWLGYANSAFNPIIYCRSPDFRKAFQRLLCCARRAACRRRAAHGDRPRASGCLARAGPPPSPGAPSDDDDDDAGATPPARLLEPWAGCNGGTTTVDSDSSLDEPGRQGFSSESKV
"IC50 ([1]; rat aorta rings, endothelium removed, phenylephrine 1×10^-7 M, methylene blue and propranolol present, read-out: IC50 (concentration of test compound which produced a relaxation equivalent to 50% of the maximal relaxation induced by nitroprusside)) [µM]","EC50 ([4]; guinea pig left atria, 31° C., read-out: ED50 (concentration producing an inotropic response half that of the maximal response produced by the test compound)) [µM]",IC50 [5] [µM],Structure (SMILES),"Emax at 100 µM ([1]; Rattus norvegicus, at the highest dose tested (100 micromolar), read-out: maximal response (relaxation as percentage of the maximal relaxation produced by nitroprusside)) [%]",ED50 [2] [µmol/kg],"ED50 ([3]; Canis lupus familiaris, iv, infusion, compared to baseline prior to drug infusion, read-out: inotropic ED50 (50% increase in dP/dt)) [µmol/kg]","inotropic effects at higher doses, sensitivity to atenolol ([3]; higher doses, atenolol)","Emax at 100 µM ([4]; at 100 micromolar, read-out: maximal response (percentage of the maximal response to forskolin)) [%]",relaxation of rat aorta [6]
23,13,0.02,"Cc1[nH]c(=O)c(C#N)cc1-c1ccc(OCCCC(=O)NCCNCC(O)COc2ccccc2)cc1 (stereo not shown) [Example 2, 5-{4-[N-[2-(3-Phenoxy-2-hydroxypropylamino)ethyl]carbamoylpropyloxy]phenyl}-6-methyl-2-oxo-1,2-dihydro-3-pyridinecarbonitrile]",97,0.055,0.04,not blocked by atenolol,36,
,,,CSc1ccc(C(=O)c2[nH]c(=O)[nH]c2C)cc1 [enoximone],,,,,,marked relaxation
,,,Cc1[nH]c(=O)c(C#N)cc1-c1ccncc1 [milrinone],,,,,,marked relaxation

# From patent publication US5051431A, “Pyridone nitriles useful in treating cardiovascular disease” (Glaxo Inc., priority 1990, dated 1991)
